Measurements: ChEMBL document CHEMBL1158929, “Tolytoxin and new scytophycins from three species of Scytonema” (J Nat Prod, 1990)
Converted amounts (≈) assume the structure as drawn. The source made the active and inactive calls. The calls are words filed in the database; no cut-off is given here.

Tests used:
Candida albicans = assay: Antifungal activity against Candida albicans by agar diffusion assay; type: functional, organism-based
Aspergillus oryzae = assay: Antifungal activity against Aspergillus oryzae by agar diffusion assay; type: functional, organism-based
Penicillium chrysogenum = assay: Antifungal activity against Penicillium notatum by agar diffusion assay; type: functional, organism-based
KB = assay: Cytotoxicity against human KB cells; type: functional, cell-based
Saccharomyces cerevisiae = assay: Antifungal activity against Saccharomyces cerevisiae by agar diffusion assay; type: functional, organism-based
LoVo = assay: Cytotoxicity against human LoVo cells; type: functional

SMILES | Activity (Candida albicans) | Activity (Aspergillus oryzae) | Activity (Penicillium chrysogenum) | IC50 (KB) [ng/mL] | Activity (Saccharomyces cerevisiae) | MIC (LoVo) [ng/mL]
CO[C@H]([C@H](C)/C=C/N(C)C=O)[C@@H](C)C(=O)CC[C@H](C)[C@H](O)[C@H](C)[C@H]1OC(=O)/C=C/C(C)=C/[C@H](O)[C@H](OC)C[C@@H]2C=CC[C@@H](C[C@H](OC)[C@@]3(CO3)[C@@H](OC)C[C@@H](OC)[C@@H]1C)O2 [TOLYTOXIN] | Active | Active | Active | 1 (≈ 1.18 nM) | Active | 
CO[C@H]([C@H](C)/C=C/N(C)C=O)[C@@H](C)C(=O)CC[C@H](C)[C@H](O)[C@H](C)[C@H]1OC(=O)/C=C/C(C)=C/C[C@H](O)C[C@@H]2C=CC[C@@H](C[C@H](OC)[C@](C)(O)[C@@H](OC)C[C@@H](OC)[C@@H]1C)O2 [SCYTOPHYCIN D] |  |  |  | 10 (≈ 12.2 nM) |  | 
CO[C@H]([C@H](C)/C=C/N(C)C=O)[C@@H](C)C(=O)CC[C@H](C)[C@H](O)[C@H](C)[C@H]1OC(=O)/C=C/C(C)=C/[C@H](O)[C@H](O)C[C@@H]2C=CC[C@@H](C[C@H](OC)[C@@]3(CO3)[C@@H](OC)C[C@@H](OC)[C@@H]1C)O2 [6-HYDROXYSCYTOPHYCIN B] | Active | Active | Active | 1 (≈ 1.2 nM) | Active | 
CO[C@H]([C@H](C)/C=C/N(C)C=O)[C@@H](C)C(=O)CC[C@H](C)[C@H](O)[C@H](C)[C@H]1OC(=O)/C=C/C(C)=C/C[C@H](O)C[C@@H]2C=CC[C@@H](C[C@H](OC)[C@@H](CO)[C@@H](OC)C[C@@H](OC)[C@@H]1C)O2 [SCYTOPHYCIN E] |  |  |  | 10 (≈ 12.2 nM) |  | 10 (≈ 12.2 nM)
CO[C@H]([C@H](C)/C=C/N(C)C=O)[C@@H](C)C(=O)CC[C@H](C)[C@H](O)[C@H](C)[C@H]1OC(=O)/C=C/C(C)=C/C[C@H](O)C[C@@H]2C=CC[C@@H](C[C@H](OC)[C@@H](C)[C@@H](OC)C[C@@H](OC)[C@@H]1C)O2 [SCYTOPHYCIN C] |  |  |  | 10 (≈ 12.4 nM) |  | 
CO[C@H]([C@H](C)/C=C/N(C)C=O)[C@@H](C)C(=O)CC[C@H](C)[C@H](O)[C@H](C)[C@H]1OC(=O)/C=C/C(C)=C/C[C@H](O)C[C@@H]2C=CC[C@@H](C[C@H](OC)[C@@H](C)[C@@H](OC)C[C@@H](O)[C@@H]1C)O2 | Active | Active | Active | 1 (≈ 1.26 nM) | Active | 
CO[C@H]([C@H](C)/C=C/N(C)C=O)[C@@H](C)C(O)CC[C@H](C)[C@H](O)[C@H](C)[C@H]1OC(=O)/C=C/C(C)=C/C[C@H](O)C[C@@H]2C=CC[C@@H](C[C@H](OC)[C@@]3(CO3)[C@@H](OC)C[C@@H](OC)[C@@H]1C)O2 (stereo partly specified) [SCYTOPHYCIN A] |  |  |  | 1 (≈ 1.22 nM) |  | 
CO[C@H]([C@H](C)/C=C/N(C)C=O)[C@@H](C)C(=O)CC[C@H](C)[C@H](O)[C@H](C)[C@H]1OC(=O)/C=C/C(C)=C/C[C@H](O)C[C@@H]2C=CC[C@@H](C[C@H](OC)[C@@]3(CO3)[C@@H](OC)C[C@@H](OC)[C@@H]1C)O2 [SCYTOPHYCIN B] |  |  |  | 1 (≈ 1.22 nM) |  | 
CO[C@H]([C@H](C)/C=C/N(C)C=O)[C@@H](C)C(=O)CC[C@H](C)[C@H](O)[C@H](C)[C@H]1OC(=O)/C=C/C(C)=C/[C@H](O)[C@H](OC)C[C@@H]2C=CC[C@@H](C[C@H](OC)[C@@H](CO)[C@@H](OC)C[C@@H](OC)[C@@H]1C)O2 | Active | Active | Active | 1 (≈ 1.17 nM) | Active | 
